1 molecule from PMC12191924, “A new naphthalene-based fluorogenic substrate for cytochrome P450 4A11” (Biochemical Journal, 2025) can be followed below.

Molecules are shown by their SMILES.

The experiment deals with T1, CYP4A11 (Homo sapiens, UniProt Q02928).
T1 sequence (Q02928 5-519): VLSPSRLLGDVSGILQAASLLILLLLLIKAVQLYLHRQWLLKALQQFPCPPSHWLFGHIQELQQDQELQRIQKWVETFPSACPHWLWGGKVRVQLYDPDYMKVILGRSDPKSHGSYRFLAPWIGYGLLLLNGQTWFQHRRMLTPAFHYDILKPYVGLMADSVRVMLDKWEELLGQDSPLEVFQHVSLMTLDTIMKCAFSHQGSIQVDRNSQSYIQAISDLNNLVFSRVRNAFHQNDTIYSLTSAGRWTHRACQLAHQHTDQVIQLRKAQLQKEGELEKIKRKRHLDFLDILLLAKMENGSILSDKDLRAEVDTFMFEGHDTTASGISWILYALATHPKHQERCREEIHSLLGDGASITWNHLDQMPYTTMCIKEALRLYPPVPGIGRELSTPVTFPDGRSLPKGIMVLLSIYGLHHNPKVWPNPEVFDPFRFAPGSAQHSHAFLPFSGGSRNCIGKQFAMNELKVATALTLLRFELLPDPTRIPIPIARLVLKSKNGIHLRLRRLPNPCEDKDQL
Nature of the experiment: MONACRA demethylation by recombinant CYP4A11 in Supersomes, high-throughput fluorimetric assay. Details: purchased Gentest (Huntsville, AL), now a part of Discovery Life Sciences lot 2402280; host or cells: insect cells, recombinant baculovirus. The following applies: Michaelis–Menten fit, ± = confidence interval P=0.05. It is filed as biochemical. As to the method:
Based on these observations, we developed a high-throughput automated assay applicable for studying SSPs of MONACRA metabolism by microsomal P450 enzymes. In this procedure, the incubation mixtures containing an NADPH-generating system and various substrate concentrations are placed in a multiwell plate and preincubated at 30°C in a thermostated shaker. The reaction is started by adding microsomal suspension to the final concentration of 0.3–1 mg/ml of microsomal protein or 0.02–0.1 µM of recombinant P450 enzymes in Supersomes. Following the incubation for 20 min at 30°C, the reaction is quenched by adding trichloroacetic acid (final concentration […]). After supplementing the wells with Na-glycine buffer (pH 10.4, final concentration 2.1 M), the plates are subjected to scanning the fluorescence spectra with excitation at 375 nm. This assay, which is described in detail in Materials and Methods, allows reliable detection of the concentrations of HONACRA as low as 0.1 µM.
We used the high-throughput activity assay described above to probe MONACRA metabolism by 16 human microsomal P450 enzymes, namely CYP1A2, CYP2A6, CYP2B6, CYP2C8, CYP2C9, CYP2C19, CYP2D6, CYP2E1, CYP2J2, CYP3A4, CYP3A5, CYP4A11, CYP4F2, CYP4F3A, CYP4F3B, and CYP4F12. […]

As to `COc1ccc2cc(C=CC(=O)O)ccc2c1` [MONACRA, 3-(6-methoxynaphthalen-2-yl)acrylic acid], the Vmax came to 66.8 ± 17.5 min⁻¹.
